Data reported in patent US7666905B2, “Compositions comprising hepoxilin analogs and their use in the treatment of cancer” (priority 2002, dated 2010).

How the values were obtained:
K562 CML cells [1] = assay: 3H-thymidine incorporation in K562 CML cells; format: cell-based, human; conditions: for effect on K562 cell growth: FIGS. 1-4
Protocol: Cell culture. Human leukemia K562 cells, obtained from the Hematology Department of the Hospital for Sick Children, were maintained as suspension cultures in RPMI 1640 medium containing 100 U/ml penicillin G, 100 μg/ml streptomycin, 10% (v/v) fetal bovine serum in a humidified atmosphere of 5% CO2 at 37° C. The ability of the cells to exclude Trypan Blue dye was used to assess cell viability.
Cells were seeded in 24 well dishes at a cell number of 5×10^4 cells/ml in starving medium (SM) of alpha Modified Eagle's Medium without fetal bovine serum (FBS) supplementation and incubated at 37° C. for 12 h. Tritiated thymidine ([^3H]-Thymidine; 25 Ci/mmol stock) was diluted in SM to a final activity of […]. The pharmacological agents tested were all diluted from their respective stocks to the desired concentration(s) with the tritiated SM. Cells receiving no drug treatments and cells treated with DMSO only were used as controls. SM was removed from the dishes, then treated with the various pharmacological agents in SM containing tritiated thymidine for 6 h at 37° C. PBT-3 was used at 2.8 μM in DMSO, (other than in dose response studies), I-BOP was used at 1.0 μM (in DMSO) and U46619 was used at 1.0 μM (in DMSO). Cells were trypsinized after 6 h and washed through Whatman GF-B/C membranes along with the supernatant. Dried membranes were deposited in scintillation vials with 8ml scintillation cocktail and the radioactivity present in the cells was counted with a liquid scintillation counter.
The effect of hepoxilin analogs on leukemia cells was examined using the CML K562 cell line. This cell line was derived from a human CML patient and is an accepted model of human chronic leukemia. The K562 cell line expresses the bcr/abl protein (Lozzio & Lozzio, 1975). It is relatively resistant to apoptosis (Martin et al., 1990), but ST1571 and other agents appear to control cell growth for a while before the cells overcome the drug effect (Weisberg & Griffin, 2000).

K562 cells [2] = assay: Nuclear fragmentation by Hoechst 33342 staining of K562 cells; format: cell-based, human; conditions: Hoechst 33342 dye, FIG. 5 Panel B; STI571 1 μM, I-BOP 1 μM
Protocol: Quantification of apoptosis and cell viability. Induction of apoptosis and loss of cell viability after treatment with PBT-3 were assessed by staining the cells with Hoechst 33342 dye. […] Pellets were suspended with 5 μg/ml of Hoechst 33342 dye for 10 minutes at room temperature. Micrographs of the DNA-stained cells were taken with a Zeiss Axiovert 100 TV video camera. Images were captured using Axiovision version 3.0.6 and processed using Photoshop 5.0. Apoptotic cells were identified based on nuclear fragmentation and chromatin condensation around the nucleus.
Nuclear fragmentation was assessed by direct microscopy of treated cells stained with Hoechst 33342 dye.

K562 cells [3] = assay: 3H thymidine uptake in K562 cells after 2 days treatment, cell number reduction and culture without drug; format: cell-based, human; conditions: PBT analogues 28 μM, I-BOP and STI571 1 μM, then 3 days without compounds, FIG. 13
Protocol: K562 cells (3×10^5 cells/plate) were cultured for 2 days in 1% FBS/αMEM in the presence of 28 μM PBT-3 (∘) or 1 μM STI (●) and ^3H thymidine incorporation was determined. Untreated control cells (□) and cells treated with DMSO alone (▪) were also examined (test compounds were dissolved in DMSO). Results are shown in FIG. 12, Panel A. The cell number in all dishes was reduced to that observed after two days of PBT-3 treatment (7.5×10^3/ml) and the cells were subsequently cultured for 3 days in 10% FBS in the absence of the test compounds.
The hepoxilin analogs compare very favourably in efficacy with STI571.

K562 CML cells [4] = assay: DNA fragmentation (laddering) by agarose gel electrophoresis in K562 cells; format: cell-based, human; conditions: PBT-3 2.8 μM, 24 or 72 hours, FIG. 5 Panel A
Protocol: Analysis of DNA fragmentation by gel electrophoresis. […] The samples were loaded on 2% agarose gel containing ethidium bromide (0.2 μg/ml). DNA fragments of known size were used as a reference marker. After electrophoresis at 25 V for 5 hours, the gels were photographed under trans-UV illumination.
Studies were carried out to determine if PBT-3 affected apoptosis in K562 CML cells. Cells were cultured for 24 or 72 hours in the presence of growth medium (control) or PBT-3 (2.8 μM). Apoptosis was examined by DNA laddering. Cultures were harvested, DNA was extracted with DNeasy (Qiagen) and samples were loaded on a 2% agarose gel containing 0.2 μg/ml ethidium bromide. A λ BstII DNA digest with DNA fragments of known size was used as a reference marker. After electrophoresis at 25V for 5 h, gels were photographed under trans-UV illumination.

[5] = test system: MDA-MB 231 breast cancer cells; assay: FACS analysis of breast cancer cell line MDA-MB 231; format: cell-based; conditions: FIG. 7
Protocol: (§1) Cells were seeded at 1×10^6 cells/ml and treated as above. Cells were scraped into 1×PBS, pelleted, washed, and repelleted as above. Cells were washed with PBS twice and scraped. The cells were pelleted by centrifugation at 1500 rpm, 5 min, at 23° C. and washed again. Cells were fixed with 50 μl PBS/HBSS with 2% calf serum and then with addition of 1 ml ice cold 80% ethanol. Samples were incubated on ice for 30 min and PBS/HBSS fixing was repeated and followed by adding 1 ml 70% ethanol. Centrifugation (1500 rpm, 5 min, room temperature) was performed to produce cell pellets that were resuspended by 250 μl of 0.1 mg/ml Propidium Iodide (Sigma) with 0.6% NP-40. 250 μl of 2 mg/ml RNAse was added and mixed well. Cells were incubated in the dark for 30 min at room temperature. Samples were then filtered through 85 μm Nitex mesh and the stained cells were analyzed on a flow cytometer of FACScan (Becton-Dickinson). The acquisition was done with 10,000 events per sample. The CellQuest (Becton-Dickinson) statistic analysis was performed in each individual experiment.

normal bone marrow cells = assay: FACS analysis of apoptosis in normal bone marrow cells; format: cell-based; conditions: FIG. 8
Protocol: as §1

[6] = test system: normal aortic smooth muscle cells; assay: FACS analysis of apoptosis in normal aortic smooth muscle cells; format: cell-based; conditions: FIG. 9
Protocol: as §1

3T3 L1 adipocytes = assay: FACS analysis of apoptosis in normal 3T3 L1 adipocytes; format: cell-based; conditions: FIG. 10
Protocol: as §1

Akt = assay: Western blot of Akt phosphorylation in K562 cells; format: cell-based, human; conditions: FIG. 11
Protocol: (§2) Cells were seeded in 100 mm culture dishes at a cell count of 5×10^4 cells/ml in 10 ml of SM and incubated at 37° C. for 12 h. Drug treatments were: DMSO as control, 0.05 μM I-BOP in DMSO, 0.5 μM I-BOP with 2.8 μM PBT-3, or 2.8 μM PBT-3 in DMSO. These concentrations were chosen based on results generated from the cell proliferation studies using thymidine incorporation. Cells were treated with drugs as described above for 6 h. After 6 h, cells were washed with 1×PBS and scraped, pelleted by centrifugation (1500 rpm, 5 min, room temperature), and washed again and pelleted as above. 200 μl cell lysis buffer (20 mM Tris-d pH 7.4, 150 mM NaCl, 1 mM EDTA, 1 mM EGTA, 1% Tx-100, 2.5 mM […], 1 mM β-glycerophosphate, 1 mM […], 1 μg/ml leupeptin, and 1 mM PMSF) were added to resuspend each pellet followed by 30 minutes of incubation on ice. […] Protein concentration was determined using a BSA standard with a BCA protein assay kit, prior to Western blotting.
(§3) Aliquots of protein (40 μg) were heated to 90° C. in SDS sample load buffer for 5 minutes, then separated by SDS-PAGE on 10% gels and transferred to nitrocellulose membranes. […] Membranes were then washed 5× in TBS-T. Bound first antibodies were detected by HRP-anti-rabbit immunoglobulins at 1:1000 in 5% non-fat dry milk for 1 h at room temperature, washing 5× in TBS-T then with enhanced chemiluminscent autoradiography (ECL). […]

Bcl-XL = assay: Western blot of Bcl-XL expression in K562 cells; format: cell-based, human; conditions: FIG. 11
Protocol: as §2, §3

caspase-3 = assay: Western blot of caspase-3 activation (cleavage to 17 kDa fragment) in K562 cells; format: cell-based, human; conditions: FIG. 14
Protocol: Western blot. […] Treatment was terminated by washing cells with ice-cold PBS buffer. Cell lysates were prepared in buffer containing 20 mM Tris-HCl pH 7.4, 150 mM NaCl, 1 mM EDTA, 1 mM EGTA, 1% Triton X-100, 2.5 mM sodium pyrophosphate, 1 mM β-glycerophosphate, 1 mM sodium orthovanadate, 1 mM PMSF and 1 μM leupeptin on ice for 60 minutes. The lysates were clarified by centrifugation at 15,000×g for 15 minutes at 4° C. Lysates were subjected to protein assay and kept at −80° C. 250 μg protein was immunoprecipitated with anti-cytochrome c antibody or anti-caspase-3 antibody coupled to protein A-agarose beads. After washing of the immunocomplexes with lysis buffer, SDS-PAGE sample loading buffer was added and the mixture was boiled for 5 minutes. After centrifugation, the supernatant was loaded onto 10-12% SDS-PAGE gel, and transferred to the Trans-Blot Nitrocellulose membrane (Bio-Rad). Protein bands on the nitrocellulose membranes were checked visually with Ponceau S-staining to assure equivalent protein loading/transfer comparing different samples. […] Bound antibodies were detected using enhanced chemilluminescence (ECL) kit and the membranes were exposed to Hyperfilm for ECL.

Compound	effect on K562 cell growth (K562 CML cells [1])	apoptotic effect (fragmentation of the nucleus and chromatin condensation) (K562 cells [2])	effect on phosphorylation of Akt (Akt)	effect on expression of the Bcl pathway (Bcl-XL) (Bcl-XL)	other results
O=C(O)CCC/C=C\CC1C2CCC(O2)C1/C=C/C(O)COc1ccc(I)cc1 (stereo not drawn) [I-BOP, [1S-[1α,2α(Z),3β(1E, 3S*), 4α]]-7-[3-[3-hydroxy-4-(iodophenoxy)-1-butenyl]-7-oxabicyclo[2.2.1]hept-2-yl]-5-heptenoic acid, reference compound]	neither the thromboxane receptor agonists nor the thromboxane receptor antagonist affected K562 cell growth	No similar apoptotic effect			
CCCCC/C=C\CC1CC1/C=C/C(O)C/C=C\CCCC(=O)OC [PBT-2, 8(R)-hydroxy-11, 12-cyclopropyl-eicosa-5Z, 9E, 14Z-trienoic acid methyl ester]					effectiveness in inhibiting cell growth (rank among treatments) (K562 cells [3]): most effective treatment
CCCCC/C=C\CC1CC1C(O)/C=C\C/C=C\CCCC(=O)OC [PBT-3, 10(S)-hydroxy-11,12-cyclopropyl-eicosa-5Z,8Z,14Z-trienoic acid methyl ester]	inhibited growth of K562 cells	produced apoptotic cells	blocked phosphorylation of Akt	essentially inactive	concentration of maximum effect on inhibition of K562 cell growth (K562 CML cells [1]; FIG. 1): 1 µg/mL; DNA fragmentation associated with apoptosis (K562 CML cells [4]): causes DNA fragmentation associated with apoptosis; synchronisation of cells (to Go phase) [5]: synchronisation effect; apoptotic effect on normal bone marrow cells (normal bone marrow cells): no apoptotic effect; apoptotic effect on normal aortic smooth muscle cells [6]: no apoptotic effect; apoptotic effect on normal (3T3 L1) adipocytes (3T3 L1 adipocytes): no apoptotic effect; time of caspase-3 activation (cleavage into a 17 kDa fragment) (caspase-3): 6 h
O=C(O)CCC/C=C\C[C@@H]1[C@H](CNNC(=O)Nc2ccccc2)[C@H]2CC[C@@H]1O2 [SQ 29,548]	neither the thromboxane receptor agonists nor the thromboxane receptor antagonist affected K562 cell growth				
Cc1ccc(NC(=O)c2ccc(CN3CCN(C)CC3)cc2)cc1Nc1nccc(-c2cccnc2)n1 [STI571, Imatinib, reference compound]			increased it	blocked the expression of the Bcl pathway (Bcl-XL)	
CCCCC[C@H](O)/C=C/[C@@H]1[C@@H](C/C=C\CCCC(=O)O)[C@H]2CO[C@@H]1C2 [U46619]	neither the thromboxane receptor agonists nor the thromboxane receptor antagonist affected K562 cell growth				
